Data on three compounds can be found in patent US20240246942A1, “KINASE INHIBITORS FOR THE TREATMENT OF NEURODEGENERATIVE DISEASES” (priority 2020, published 2024).

Like-named read-outs stand apart in the source and are kept apart here.

Assay in all cases: biochemical
Test [1] concerns the target T1, panel of 374 wild-type kinases (Homo sapiens, UniProt O14965).
T1 construct: purchased Reaction Biology Corporation
T1 sequence (O14965 1-403): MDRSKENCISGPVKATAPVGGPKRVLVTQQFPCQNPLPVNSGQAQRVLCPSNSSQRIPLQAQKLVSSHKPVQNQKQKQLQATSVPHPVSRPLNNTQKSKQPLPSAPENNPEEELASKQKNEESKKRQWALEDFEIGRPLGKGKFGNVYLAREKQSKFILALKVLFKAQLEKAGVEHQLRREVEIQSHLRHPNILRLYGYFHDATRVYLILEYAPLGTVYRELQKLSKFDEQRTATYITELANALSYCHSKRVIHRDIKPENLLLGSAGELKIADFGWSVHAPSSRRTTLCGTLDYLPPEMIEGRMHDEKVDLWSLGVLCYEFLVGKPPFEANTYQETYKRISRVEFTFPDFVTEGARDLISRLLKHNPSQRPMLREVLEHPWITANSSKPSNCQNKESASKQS
The following applies: read-out: % Enzyme Activity (relative to DMSO controls), Aurora A.

For test [2], the target named is T2, panel of 374 wild-type kinases (Homo sapiens, UniProt P05129).
T2 construct: purchased Reaction Biology Corporation
The following applies: read-out: % Enzyme Activity (relative to DMSO controls), kinase PKCg.

Test [3] deals with T3, panel of 374 wild-type kinases (Homo sapiens, UniProt Q00526).
T3 construct: purchased Reaction Biology Corporation

Test [4] addresses T4, panel of 374 wild-type kinases (Homo sapiens, UniProt P21709).
T4 construct: purchased Reaction Biology Corporation
T4 sequence (P21709 26-976): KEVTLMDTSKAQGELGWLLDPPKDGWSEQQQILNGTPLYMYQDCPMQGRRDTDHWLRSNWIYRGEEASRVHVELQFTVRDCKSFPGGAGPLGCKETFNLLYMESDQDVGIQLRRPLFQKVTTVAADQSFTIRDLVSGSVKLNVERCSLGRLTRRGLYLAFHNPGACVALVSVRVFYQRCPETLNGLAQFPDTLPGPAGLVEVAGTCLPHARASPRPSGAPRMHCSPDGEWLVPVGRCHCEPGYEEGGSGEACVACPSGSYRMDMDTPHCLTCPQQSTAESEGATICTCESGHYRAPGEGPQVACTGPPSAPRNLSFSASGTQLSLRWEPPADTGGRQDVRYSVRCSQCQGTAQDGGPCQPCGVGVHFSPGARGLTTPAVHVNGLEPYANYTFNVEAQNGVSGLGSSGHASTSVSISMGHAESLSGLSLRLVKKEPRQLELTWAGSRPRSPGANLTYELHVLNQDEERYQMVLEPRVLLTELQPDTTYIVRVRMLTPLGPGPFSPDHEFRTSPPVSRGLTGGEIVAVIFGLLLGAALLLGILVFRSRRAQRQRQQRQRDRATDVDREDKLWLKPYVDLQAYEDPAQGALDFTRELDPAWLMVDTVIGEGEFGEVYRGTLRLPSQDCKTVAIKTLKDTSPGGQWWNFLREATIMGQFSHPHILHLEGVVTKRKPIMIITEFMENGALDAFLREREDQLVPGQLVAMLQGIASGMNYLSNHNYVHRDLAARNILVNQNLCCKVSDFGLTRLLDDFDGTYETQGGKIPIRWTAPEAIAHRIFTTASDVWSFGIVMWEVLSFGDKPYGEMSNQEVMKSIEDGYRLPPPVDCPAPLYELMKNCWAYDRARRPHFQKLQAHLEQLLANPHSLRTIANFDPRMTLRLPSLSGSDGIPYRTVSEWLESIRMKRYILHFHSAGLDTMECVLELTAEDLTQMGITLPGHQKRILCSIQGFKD
The following applies: read-out: % Enzyme Activity (relative to DMSO controls), EPHA1.

The target of test [5] is T5, panel of 374 wild-type kinases (Homo sapiens, UniProt P37023).
T5 construct: purchased Reaction Biology Corporation
The following applies: read-out: % Enzyme Activity (relative to DMSO controls), ALK1/ACVRL1.

The target of test [6] is T6, panel of 374 wild-type kinases (Homo sapiens, UniProt P07947).
T6 construct: purchased Reaction Biology Corporation
The following applies: read-out: % Enzyme Activity (relative to DMSO controls), kinase YES/YES1.

The target in test [7] is T7, panel of 374 wild-type kinases (Homo sapiens, UniProt P48730).
T7 construct: purchased Reaction Biology Corporation
The following applies: read-out: % Enzyme Activity (relative to DMSO controls), CK1d.

Test [8] has as its target T8, panel of 374 wild-type kinases (Homo sapiens, UniProt P27448).
T8 construct: purchased Reaction Biology Corporation
The following applies: read-out: % Enzyme Activity (relative to DMSO controls), MARK3.

In test [9] the target is T9, panel of 374 wild-type kinases (Homo sapiens, UniProt O00506).
T9 construct: purchased Reaction Biology Corporation
The following applies: read-out: % Enzyme Activity (relative to DMSO controls), kinase STK25/YSK1.

Test [10] addresses T10, panel of 374 wild-type kinases (Homo sapiens, UniProt O00238).
T10 construct: purchased Reaction Biology Corporation
The following applies: read-out: % Enzyme Activity (relative to DMSO controls), ALK6/BMPR1B.

The target of test [11] is T11, panel of 374 wild-type kinases (Homo sapiens, UniProt Q9P1W9).
T11 construct: purchased Reaction Biology Corporation
The following applies: read-out: % Enzyme Activity (relative to DMSO controls), kinase PIM2.

Test [12] addresses T12, panel of 374 wild-type kinases (Homo sapiens, UniProt P24723).
T12 construct: purchased Reaction Biology Corporation
The following applies: read-out: % Enzyme Activity (relative to DMSO controls), kinase PKCeta.

[13] abbreviates: read-out: % Enzyme Activity (relative to DMSO controls), CDK3/cyclin E2.
Where [14] appears, read: read-out: % Enzyme Activity (relative to DMSO controls), CDK3/cyclin E.

T7 sequence (P48730 whole entry): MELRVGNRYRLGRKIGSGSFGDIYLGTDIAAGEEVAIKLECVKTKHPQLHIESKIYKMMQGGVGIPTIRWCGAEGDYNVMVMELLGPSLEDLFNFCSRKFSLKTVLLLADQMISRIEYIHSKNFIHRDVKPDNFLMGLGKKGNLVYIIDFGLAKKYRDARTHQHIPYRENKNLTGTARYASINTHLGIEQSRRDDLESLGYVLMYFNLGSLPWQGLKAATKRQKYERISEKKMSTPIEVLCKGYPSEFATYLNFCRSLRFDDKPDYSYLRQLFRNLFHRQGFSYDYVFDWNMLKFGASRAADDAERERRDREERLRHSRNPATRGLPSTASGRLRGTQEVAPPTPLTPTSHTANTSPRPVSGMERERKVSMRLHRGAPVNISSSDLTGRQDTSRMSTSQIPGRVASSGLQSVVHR
T6 sequence (P07947 whole entry): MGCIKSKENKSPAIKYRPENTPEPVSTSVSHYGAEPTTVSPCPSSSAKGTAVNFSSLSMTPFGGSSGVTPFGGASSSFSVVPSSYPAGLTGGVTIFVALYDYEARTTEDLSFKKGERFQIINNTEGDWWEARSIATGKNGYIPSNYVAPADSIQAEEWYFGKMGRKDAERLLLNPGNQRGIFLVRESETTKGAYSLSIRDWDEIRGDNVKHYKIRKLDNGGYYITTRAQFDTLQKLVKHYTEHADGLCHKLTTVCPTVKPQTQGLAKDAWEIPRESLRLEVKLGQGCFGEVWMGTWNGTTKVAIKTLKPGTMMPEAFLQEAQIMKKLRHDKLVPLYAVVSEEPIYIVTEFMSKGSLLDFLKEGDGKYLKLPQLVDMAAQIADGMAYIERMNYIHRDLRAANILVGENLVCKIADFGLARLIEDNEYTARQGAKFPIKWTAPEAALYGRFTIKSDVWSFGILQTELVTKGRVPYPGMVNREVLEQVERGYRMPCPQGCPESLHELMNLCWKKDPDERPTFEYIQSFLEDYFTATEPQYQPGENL
T9 sequence (O00506 whole entry): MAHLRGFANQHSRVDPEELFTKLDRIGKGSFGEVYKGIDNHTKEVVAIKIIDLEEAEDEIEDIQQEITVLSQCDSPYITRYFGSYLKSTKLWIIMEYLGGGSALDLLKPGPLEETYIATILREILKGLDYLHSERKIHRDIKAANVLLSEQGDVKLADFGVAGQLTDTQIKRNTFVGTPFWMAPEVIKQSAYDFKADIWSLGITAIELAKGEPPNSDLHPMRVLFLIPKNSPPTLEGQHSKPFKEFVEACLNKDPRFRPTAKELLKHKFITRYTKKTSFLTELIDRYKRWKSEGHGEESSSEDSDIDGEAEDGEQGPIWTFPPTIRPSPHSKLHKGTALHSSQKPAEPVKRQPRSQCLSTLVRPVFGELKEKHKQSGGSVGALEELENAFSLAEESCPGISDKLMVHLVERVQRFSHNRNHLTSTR
T3 sequence (Q00526 whole entry): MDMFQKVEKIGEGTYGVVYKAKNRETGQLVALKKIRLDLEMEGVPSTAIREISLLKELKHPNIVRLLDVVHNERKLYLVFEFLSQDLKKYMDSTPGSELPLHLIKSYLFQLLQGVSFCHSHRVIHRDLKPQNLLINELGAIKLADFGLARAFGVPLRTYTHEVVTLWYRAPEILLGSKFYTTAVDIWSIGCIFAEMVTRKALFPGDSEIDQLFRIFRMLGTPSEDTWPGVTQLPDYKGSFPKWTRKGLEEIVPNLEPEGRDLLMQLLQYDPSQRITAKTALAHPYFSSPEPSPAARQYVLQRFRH
T12 sequence (P24723 whole entry): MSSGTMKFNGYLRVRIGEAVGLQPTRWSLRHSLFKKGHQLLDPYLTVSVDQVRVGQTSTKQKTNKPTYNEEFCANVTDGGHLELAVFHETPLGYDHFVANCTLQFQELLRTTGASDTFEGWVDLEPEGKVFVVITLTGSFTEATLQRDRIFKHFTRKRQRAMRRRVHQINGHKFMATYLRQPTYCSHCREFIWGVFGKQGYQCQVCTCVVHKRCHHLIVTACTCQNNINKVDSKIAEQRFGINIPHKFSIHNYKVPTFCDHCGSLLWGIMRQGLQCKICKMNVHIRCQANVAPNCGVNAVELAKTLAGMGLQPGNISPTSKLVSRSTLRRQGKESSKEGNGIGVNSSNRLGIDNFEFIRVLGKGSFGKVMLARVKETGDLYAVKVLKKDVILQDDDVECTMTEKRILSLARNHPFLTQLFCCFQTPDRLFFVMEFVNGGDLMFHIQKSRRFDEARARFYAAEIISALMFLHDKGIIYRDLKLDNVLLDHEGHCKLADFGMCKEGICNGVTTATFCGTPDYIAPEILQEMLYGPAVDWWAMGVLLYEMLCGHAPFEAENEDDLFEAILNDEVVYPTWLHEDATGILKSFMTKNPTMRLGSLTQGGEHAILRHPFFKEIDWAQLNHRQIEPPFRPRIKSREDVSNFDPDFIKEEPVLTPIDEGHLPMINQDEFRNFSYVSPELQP
T10 sequence (O00238 14-502): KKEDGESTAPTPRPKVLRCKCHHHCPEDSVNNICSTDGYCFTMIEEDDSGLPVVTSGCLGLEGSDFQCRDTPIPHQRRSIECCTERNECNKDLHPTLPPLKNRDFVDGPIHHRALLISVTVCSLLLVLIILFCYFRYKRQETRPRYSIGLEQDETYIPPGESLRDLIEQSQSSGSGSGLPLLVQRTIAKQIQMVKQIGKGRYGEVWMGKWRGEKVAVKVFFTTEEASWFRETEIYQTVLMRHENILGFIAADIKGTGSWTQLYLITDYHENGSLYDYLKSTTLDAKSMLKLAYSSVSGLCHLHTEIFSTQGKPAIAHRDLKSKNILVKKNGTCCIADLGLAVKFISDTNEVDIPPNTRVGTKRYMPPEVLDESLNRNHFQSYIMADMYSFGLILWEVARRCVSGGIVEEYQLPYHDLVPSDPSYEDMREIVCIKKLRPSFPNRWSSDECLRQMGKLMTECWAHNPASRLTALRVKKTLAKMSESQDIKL
T5 sequence (P37023 22-503): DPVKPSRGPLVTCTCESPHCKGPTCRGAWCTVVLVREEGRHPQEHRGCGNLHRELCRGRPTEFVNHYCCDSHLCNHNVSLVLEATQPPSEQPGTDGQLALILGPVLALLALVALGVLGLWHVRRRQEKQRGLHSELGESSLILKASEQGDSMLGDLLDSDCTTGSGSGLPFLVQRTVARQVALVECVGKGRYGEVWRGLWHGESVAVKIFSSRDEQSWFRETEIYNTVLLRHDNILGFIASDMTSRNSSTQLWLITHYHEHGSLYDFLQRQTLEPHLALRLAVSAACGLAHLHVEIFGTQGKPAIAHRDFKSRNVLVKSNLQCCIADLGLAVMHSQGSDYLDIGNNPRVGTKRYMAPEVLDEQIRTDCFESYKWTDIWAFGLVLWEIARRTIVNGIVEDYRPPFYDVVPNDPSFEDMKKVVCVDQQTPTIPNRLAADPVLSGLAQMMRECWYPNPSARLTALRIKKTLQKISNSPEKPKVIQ
T8 sequence (P27448 whole entry): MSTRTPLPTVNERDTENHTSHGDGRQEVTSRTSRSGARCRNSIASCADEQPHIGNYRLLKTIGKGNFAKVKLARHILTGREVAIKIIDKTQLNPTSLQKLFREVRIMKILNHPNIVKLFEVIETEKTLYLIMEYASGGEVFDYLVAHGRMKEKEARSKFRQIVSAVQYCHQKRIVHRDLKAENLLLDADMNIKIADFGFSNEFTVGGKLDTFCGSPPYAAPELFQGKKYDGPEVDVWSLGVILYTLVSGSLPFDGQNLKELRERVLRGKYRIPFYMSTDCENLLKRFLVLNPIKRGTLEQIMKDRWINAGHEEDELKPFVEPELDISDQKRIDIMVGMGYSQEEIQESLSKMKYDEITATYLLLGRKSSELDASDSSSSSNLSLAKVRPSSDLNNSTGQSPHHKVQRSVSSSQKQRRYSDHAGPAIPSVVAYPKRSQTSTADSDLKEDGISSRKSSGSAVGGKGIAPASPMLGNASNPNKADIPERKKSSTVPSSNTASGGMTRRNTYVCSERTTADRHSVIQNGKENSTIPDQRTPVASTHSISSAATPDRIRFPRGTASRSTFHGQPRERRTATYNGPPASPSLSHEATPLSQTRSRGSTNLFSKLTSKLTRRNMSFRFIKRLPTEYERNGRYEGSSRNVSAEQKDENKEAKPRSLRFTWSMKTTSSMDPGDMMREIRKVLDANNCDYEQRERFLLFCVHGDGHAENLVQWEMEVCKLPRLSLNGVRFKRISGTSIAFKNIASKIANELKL

Take `O=C(Nc1cnn(-c2csc(C(=O)NC3COC3)c2)c1)Nc1ccccc1Cl` [Compound 17, 4-(4-(3-(2-chlorophenyl)ureido)-1H-pyrazol-1-yl)-N-(oxetan-3-yl)thiophene-2-carboxamide]: the remaining activity at 5 µM in [1] came out at 105%; in test [2] it was 98%; in test [3] (setting [13]) it was 95.8%; in [3] (setting [14]) it was 107%; in test [4], 99.1%; in test [5] it was 107%. Moreover, the remaining activity at 5 µM is 96.5% in test [6]; 101% in test [7]; 98.2% in test [8]; 106% in [9]; 109% in test [10]; 96.4% in [11]. In addition, the remaining activity at 5 µM in test [12] worked out at 103%.
Turning to `O=C(Nc1cnn(-c2csc(C(=O)NC3COC3)c2)c1)Nc1c(F)cccc1Cl` [Compound 25, 4-(4-(3-(2-chloro-6-fluorophenyl)ureido)-1H-pyrazol-1-yl)-N-(oxetan-3-yl)thiophene-2-carboxamide], the remaining activity at 5 µM in test [1] is 83.1%; in test [2] it was 98.3%; in test [3] (setting [13]), 109%; in test [3] (setting [14]), 92.2%; in test [4], 88.4%; in [5] it was 120%. Also, the remaining activity at 5 µM was 91% in [6]; 117% in test [7]; 99.3% in test [8]; 96.1% in test [9]; 114% in test [10]; 129% in test [11]. In test [12], the remaining activity at 5 µM was 99%.
Turning to `Cc1sc(C(=O)NC2COC2)cc1-n1cc(NC(=O)Nc2c(F)cccc2Cl)cn1` [Compound 27, 4-(4-(3-(2-chloro-6-fluorophenyl)ureido)-1H-pyrazol-1-yl)-5-methyl-N-(oxetan-3-yl)thiophene-2-carboxamide], the remaining activity at 10 µM in test [1] (10 uM) is 88.4%; in test [2] (10 uM), 102%; in test [3] (setting [13]), 103%; in test [3] (setting [14]) it was 91.2%; in test [4] (10 uM), 88.5%; in [5] (10 uM), 78.7%. The remaining activity at 10 µM was 81.4% in test [6] (10 uM); 112% in test [7] (10 uM); 102% in test [8] (10 uM); 70.5% in test [9] (10 uM); 104% in [10] (10 uM); 96.5% in [11] (10 uM). Besides, in [12] (10 uM), the remaining activity at 10 µM amounted to 91.6%.
